Positions of bridges follow the written chain, without caps; N, C: chain ends. Residues, ends and D or L forms follow the SMILES beside them.
Tests used:
[1] = tested on: S. Typhimurium ATCC14082; assay: Antimicrobial activity (killing) curves; assay type: cell-based, Salmonella Typhimurium; conditions: 4 × MIC; log phase, ~5 × 10^4 CFU/mL in LB, 37°C; plate counts at 0, 2, 4, 6 h; n = 6
Experimental: To further address the activity of recombinant MccJ25, antimicrobial activity curves and Live/Dead viability assay were performed. A single colony of S. Pullorum CVCC1791, S. Typhimurium ATCC14082, and E. coli O157:H7 was inoculated into 5 mL of LB. The culture was then incubated at 37°C with shaking at 200 rpm overnight. The following day, the culture was diluted 1:100 in fresh LB and again incubated at 37°C with shaking at 200 rpm. For antimicrobial activity, the bacteria were grown until they reached log phase. Approximately 5 × 10^4 CFU/mL bacteria were inoculated into 2 mL of LB containing different concentrations of the recombinant MccJ25 (0, 1 × MIC, 2 × MIC, and 4 × MIC). The cultures (0.1 mL) were serially diluted with PBS and plated on LB and TSA agar at 0, 2, 4, and 6 h. The plates were incubated at 37°C overnight to count colony. Colonies were counted to determine CFU/mL. The experiment was conducted with two replicates in three independent trials.

[2] = tested on: S. Pullorum; assay: Live/Dead BacLight viability assay; assay type: cell-based, Salmonella Pullorum; conditions: at the MIC level, 2 h at 37°C, 5 × 10^4 CFU/mL in LB; fluorescence microscopy
Experimental: A Live/Dead BacLight Bacterial Viability Kit 7 (Molecular Probes, Inc., Eugene) was used to test bacterial viability. Briefly, 5 × 10^4 CFU/mL S. Pullorum, S. Typhimurium, and E. coli O157:H7 were inoculated into 1 mL of LB containing recombinant MccJ25 at the MIC level specific for each pathogen. Bacterial cultures were incubated at 37°C for 2 h and then incubated in the dark at ambient temperature with SYTO 9 and propidium iodide for 15 min. Bacteria were observed using a fluorescence microscope (EVOS XL Cell Imaging System).

[3] = tested on: S. Pullorum; assay: Antimicrobial activity in different growth phases, viable plate counting; assay type: cell-based, Salmonella Pullorum; conditions: LB, n = 6; for time to reduction to undetectable levels: early- or late-log phase cells, plate counts at 0, 12, 24, 48 h; for time to reduction to non-detectable levels: stationary phase cells, plate counts
Experimental: (§1) The effect of growth phase on the anti-Salmonella and -E. coli O157:H7 activity of recombinant MccJ25 was determined by the viable plate counting method, as described previously ([Ma et al., 2016]; [Fan et al., 2017]), with minor modifications. Cultures of the strains in the early-log phase, late-log phase and stationary phase were washed, concentrated and diluted with sterilized phosphate-buffered saline (PBS) to approximately 10^7 CFU/mL. Then, 1 mL was incubated individually in 9 mL of PBS to reach an approximate 10^6 CFU/mL final concentration. The bacterial cells were then inoculated into 5 mL of LB containing different concentrations of MccJ25 (0, 1 × MIC, 2 × MIC, and 4 × MIC). At 0, 12, 24, and 48 h post incubation, the cultures (0.1 mL) were serially diluted with PBS and plated on LB and TSA agar. The plates were incubated at 37°C overnight to count colony. Colonies were counted to determine CFU/mL. The experiment was conducted with two replicates in three independent trials.

[4] = tested on: E. coli O157:H7; assay: as above; assay type: cell-based, Escherichia coli; conditions: 4 × MIC, LB, plate counts, n = 6
Experimental: as §1

[5] = tested on: E. coli O157:H7; assay: Antimicrobial activity in biological food products (skim milk, egg yolk, mincemeat extract); assay type: cell-based, Escherichia coli; conditions: 4 × MIC, SKM, 37°C; for viable bacteria after 24 h in the three food products: SEY, SMS, data not shown
[6] = tested on: S. Pullorum; assay: pH stability, inhibition zone read-out; assay type: physicochemical, Salmonella Pullorum; conditions: pH 2.0 to 9.0 for 2 h; 150 μL of 1 × MIC; Oxford cup inhibition zone on LB agar, overnight 37°C; three replicate experiments
Experimental: Assays of the antibacterial activity of recombinant MccJ25 at different temperatures (25, 37, 45, 55, 65, 75, 85, and 95°C for 20 min) and different pH values (pH 2.0, 3.0, 4.0, 5.0, 6.0, 7.0, 8.0, and 9.0 for 2 h) were performed. The assays were conducted as described previously ([Chen et al., 2009]; [Meng et al., 2019]), with slight modifications. LB agar inoculated with the indicator bacteria S. Pullorum (approximately 10^5 viable cells per mL) was poured over plates fitted with Oxford cups to make wells. 150 μL of 1 × MIC final concentration of recombinant MccJ25 samples previously treated under various conditions were added to the wells. The agar overlays were incubated overnight at 37°C, and the inhibition zones were recorded.

[7] = tested on: IPEC-J2 cells; assay: Salmonella invasion of IPEC-J2 cell monolayers; assay type: cell-based; conditions: 6 h with recombinant MccJ25, Salmonella for 2 h; plate counts, n = 9
Experimental: FIGURE S1 | Protective effects of recombinant MccJ25 against Salmonella invasion of IPEC-J2 cell monolayers. IPEC-J2 cells were cultured with or without recombinant MccJ25 for 6 h in the absence or presence of Salmonella for 2 h. The invasion of Salmonella in the IPEC-J2 cells was determined. Salmonella (mean CFU/ml ± SEMs) were determined by plate counts, and determined from three individual experiments. n = 9. Different superscript lowercase letters within each group indicate significant differences (P < 0.05).

For CC[C@H](C)[C@H](NC(=O)CNC(=O)[C@@H](NC(=O)[C@H](Cc1ccccc1)NC(=O)[C@H](Cc1ccc(O)cc1)NC(=O)[C@@H]1CCC(=O)NCC(=O)NCC(=O)N[C@@H](C)C(=O)NCC(=O)N[C@@H](Cc2c[nH]cn2)C(=O)N[C@@H](C(C)C)C(=O)N2CCC[C@H]2C(=O)N1)C(C)C)C(=O)NCC(=O)N[C@H](C(=O)N1CCC[C@H]1C(=O)N[C@H](C(=O)N[C@@H](CO)C(=O)N[C@@H](Cc1ccccc1)C(=O)N[C@@H](Cc1ccc(O)cc1)C(=O)NCC(=O)O)[C@@H](C)CC)[C@@H](C)O [recombinant MccJ25, microcin J25] (GGAGHVPEYFVGIGTPISFYG-OH; lactam N-8 (inferred); C-terminus assumed), the “incubation time after which the pathogen was eliminated (killing curve)” value [1] was 6 h, the “bactericidal activity, Live/Dead staining (SYTO 9 / propidium iodide)” value [2] was “excellent bactericidal activity” and the “time to reduction to undetectable levels” value ([3]; 8 μg/mL) was at most 24 h. The “time to reduction to undetectable levels” value ([3]; 4 × MIC) was at most 12 h, the “time to reduction to non-detectable levels” value ([3]; 8 μg/mL) was at most 48 h and the “time to reduction to non-detectable levels” value ([3]; 16 μg/mL) was at most 24 h. The “time to reduction to non-detectable levels” value ([4]; early-log phase cells) was at most 12 h, the “time to reduction to non-detectable levels” value ([4]; late-log phase cells) was at most 24 h and the “time to reduction to non-detectable levels” value ([4]; stationary phase cells) was 48 h. The “viable bacteria after 24 h in the three food products” value ([5]; inoculum 10^3 CFU/mL) was “no viable bacteria were detected”, the “viable bacteria after 24 h in the three food products” value ([5]; inoculum 10^4 CFU/mL) was “no bacteria were detected” and the “CFU reduction after 24 h” value ([5]; SEY, and SMS, inoculum 10^6 CFU/mL, plate counts, n = 6) was “approximately 10^3 CFU/mL”. The “effect of pH on activity against S. Pullorum (pH stability)” value [6] was “no effect” and the “S. Pullorum invasion of IPEC-J2 cells” value [7] was “inhibited S. Pullorum invasion”.

— publication PMC6718478, “A Comprehensive Antimicrobial Activity Evaluation of the Recombinant Microcin J25 Against the Foodborne Pathogens Salmonella and E. coli O157:H7 by Using a Matrix of Conditions” (Frontiers in Microbiology, 2019)
